These results are taken from US8821862B2, “Soluble β-N-acetylglucosaminidase based antibiofilm compositions and uses thereof” (Kane Biotech Inc., priority 2002, dated 2014).

Assay [1] has as its system A. actinomycetemcomitans planktonic cells. The conditions noted are these: SDS; Drake et al. 1992, Wade & Addy 1992; cited from earlier work.
Assay [2] relates to biofilm-embedded S. epidermidis. The assay can be described thus: In vitro biofilm killing assay after DispersinB pre-treatment. Type of assay: cell-based, Staphylococcus epidermidis. The note with it: 37° C. On the procedure: An in vitro biofilm assay was performed to determine the effect of DispersinB™ pre-treatment on the susceptibility of S. epidermidis to SDS. S. epidermidis biofilm grown in tubes were pretreated with PBS or DispersinB™ (20 μg/ml) for 30 min, and then treated with SDS (0.2 mg/ml) for 5 min at 37° C. […] However, SDS caused a 1.5 log unit decrease in the number of CFUs in tubes pretreated with […] biofilm embedded cells more susceptible to SDS.
An in vitro biofilm assay was performed to determine the effect of DispersinB™ pre-treatment on the susceptibility of biofilm-embedded S. epidermidis to CHX. S. epidermidis biofilm grown in tubes were pretreated with PBS or DispersinB™ (20 μg/ml) for 30 min, and then treated with CHX (0.2 μg/ml) for 5 min at 37° C. […] However, CHX caused a 1.6 log decrease of CFU in tubes pretreated with DispersinB™. DispersinB™ pretreatment made biofilm-embedded cells more susceptible to CHX.
An in vitro biofilm assay was performed to determine the effect of DispersinB™ pre-treatment on the susceptibility of S. epidermidis to BKC. S. epidermidis biofilm grown in tubes were pretreated with PBS or DispersinB™ (20 μg/ml) for 30 min, and then treated with BKC (0.4 μg/ml) for 60 min at 37° C. […] However, BKC caused a 2.2 log decrease in CFU in tubes pretreated with DispersinB™. DispersinB™ pre-treatment made biofilm-embedded cells more susceptible to BKC.
An in vitro biofilm assay was performed to determine the effect of DispersinB™ pre-treatment on susceptibility of S. epidermidis to silver nanopowder (SNP). S. epidermidis biofilm grown in tubes were pretreated with PBS or DispersinB™ (20 μg/ml) for 30 min, and then treated with SNP (0.03125 μg/ml) for 60 min at 37° C. […] However, SNP caused a 1.5 log decrease in CFU in tubes pretreated with DispersinB™. DispersinB™ pre-treatment made biofilm embedded cells more susceptible to SNP treatment.

In assay [3] the test system is A. actinomycetemcomitans strain HW1018 (PGA mutant) biofilms. The assay can be described thus: Biofilm detachment assay (crystal violet). The conditions noted are these: 0.1% SDS in PBS, 5 min; tubes and microplate wells. It is filed as cell-based. The text has this: (§1) Bacterial strains, media, and growth conditions. A. actinomycetemcomitans strain CU1000 (serotype f) was isolated from a person with localized aggressive periodontitis (Fine et al., Microbiol. 1999, 145: 1335-1347). […] An isogenic PGA mutant strain HW1018 (CU1000 pgaC::IS903φKan) was isolated by randomly mutagenizing CU1000 with transposon IS903φKan and selecting mutants that produced white colonies on Congo red agar, as previously described (Kaplan et al., 2003; Kaplan et al., J. Bacteriol. 2004, 186: 8213-8220). Like other pgaC mutant strains, HW1018 was completely deficient in PGA production, but still formed tenacious biofilms on plastic surfaces (Kaplan et al., 2004). Bacteria were grown in trypticase soy broth supplemented with […] and 8 g/L glucose. Solid medium was supplemented with 15 g/L agar. All cultures were incubated statically at 37° C. in 10% CO2.
(§2) Biofilm Cultures. Biofilms were grown in 17 mm×100 mm culture tubes (untreated polystyrene; Falcon #352051) or 96-well microtiter plates (tissueculture-treated polystyrene, flat bottoms; Falcon #353072). Culture vessels were inoculated with a 1:10 dilution of inoculum in fresh broth (1 mL for tubes or 200 μL for microplates) and incubated for 24 h.
(§3) Crystal Violet Assay. Biofilm biomass was visualized and quantitated by means of a crystal violet binding assay as previously described (Kaplan et al., Antimicrob. Agents Chemother. 2004, 48: 2633-2636). Briefly, biofilms were rinsed with water to remove loosely attached cells, stained for 1 min with Gram's crystal violet (200 μL for microplates and 1 mL for tubes), rinsed, dried, and photographed. For quantitation of biofilms grown in microplates, biofilms were de-stained with 200 μL of 33% acetic acid for 5 min, and the absorbance of the crystal violet solution was measured directly in the plate by means of a BioRad Benchmark microtiter plate-reader set at 590 nm. Crystal violet binds to bacterial biofilms, but not to polystyrene (O'Toole & Kolter, Mol. Microbiol. 1998, 28: 449-461).
(§4) Biofilm Detachment Assay. Biofilms were rinsed with water and treated with 200 μL (for microplates) or 1 mL (for tubes) of DispersinB™ (20 μg/mL in PBS) or SDS (0.001-1% in PBS). After a five- or 30-minute incubation at 37° C., biofilms were rinsed with water and stained with crystal violet as described above. In some assays, biofilms were first treated with DispersinB™ for 5 or 30 min, rinsed, and then treated with SDS. All detachment assays were performed in duplicate wells or tubes. All assays were performed on at least 3 separate occasions, with similar results.

Assay [4] relates to A. actinomycetemcomitans strain CU1000 (wild-type) biofilms. The assay is described as follows: Biofilm detachment assay (crystal violet). Type of assay: cell-based.
Text: as §1, §2, §3, §4

In assay [5] the test system is A. actinomycetemcomitans CU1000 biofilms. The assay can be described thus: Biofilm killing assay. It is filed as cell-based. The conditions noted are these: for decrease in the number of CFU: then 0.01% SDS 5 min. On the procedure:
Biofilm Killing Assay. […] Tubes were vortexed for 10 s, and 20 μL aliquots of the detached biofilms were transferred to the wells of a flat-bottomed 96-well microtiter plate containing 180 μL of fresh broth. Five serial dilutions (20 μL into 180 μL) were performed directly into adjacent wells. Plates were incubated for 48 h and then rinsed and stained with crystal violet as described above. Wells containing 30-300 biofilm colonies were photographed under a dissecting microscope and counted. In some assays, biofilms were pre-treated with 1 mL of DispersinB™ (20 μg/mL in PBS) for 5 min prior to the SDS treatment. In these assays, a 100 μL quantity of SDS in PBS (at 10 times the test concentration) was added directly to the DispersinB™-treated cell suspension and mixed. After 5 min, tubes were vortexed briefly, and 20-μL aliquots of culture were enumerated as described above. Killing assays were performed in duplicate tubes on at least 5 separate occasions, with similar results.

For assay [6], the system named is E. coli csrA luxCDABE kan^r biofilm. The assay is described as follows: Bioluminescent E. coli biofilm on filter disc, luminescence. The note with it: Table 4, repeated experiment. It is filed as cell-based. The source says: E. coli TRMG1655 [csrA::kan^r] strain was transformed with transposon, mini-TN5 luxCDABE::kan^r for luciferase expression (Kadurugamuwa et al., 2005, Infect. Immun. 73: 3878-3887), and the operon integrated into the chromosome. Integration was confirmed by amplification of the genomic DNA upstream of the transposon by inverse PCR using Ssp1-digested genomic DNA. Primers UTCF1 (5′-[…]-3′; SEQ ID NO:13) and UTCR (5′-[…]-3′; SEQ ID NO:14) were used to amplify the upstream region using Pfu DNA polymerase (Sigma-Oligosynthesis, St. Louis, Mo.). The lux operon is derived from Photorhabdus luminescence and was obtained from Xenogen Inc. (Alameda, Calif.). These bioluminescent bacteria allow real-time monitoring by noninvasive imaging of biofilms, either in vitro or in vivo.
A cell suspension of 10^6 E. coli csrA luxCDABE kan^r was used to inoculate a filter disc (Millipore Corporation, Billerica, Mass.). The E. coli biofilm was maintained in minimal media (M9) supplemented with 50 μg/ml kanamycin and 100 μg/ml ampicillin. The media were changed every day by transferring the disc to new plate. After 3 days, chemoluminescence activity of the established biofilm was measured using a Typhoon™ imaging scanner (General Electric Healthcare Life Sciences) and ImageQuant TL software (Amersham Biosciences, Sunnyvale, Calif.). The measure luminescence directly correlates with the metabolic activity of the biofilm.
Luminescence was measured at day 0 and was used as the control. Following the measurement of luminescence at day 0, each disc was treated with one of the following—media alone (control) and media containing:
Luminescence was measured every 24 hours followed by replacing the media. Thus, every 24 h following the measurement of the luminescence, 10 μl each of the different solutions was applied to the plate and the biofilm disc was placed on top of the drop everyday. The quantitative analysis of the biofilm luminescence from each day was used to compare the biofilm activity after treatment with the different treatments.
The experiments were repeated using the same E. coli strain csrA luxCDABE kan^r and protocols. Biofilm discs were pulsed with media alone (control) and media containing: […]

Assay [7] concerns biofilm embedded S. epidermidis. The assay is described as follows: 12-well microplate biofilm assay with CFU counting. It is filed as cell-based, Staphylococcus epidermidis.
Procedure: In vitro microplate assays were performed to determine the effect of DispersinB and PyrM combination on the growth of biofilm-embedded S. epidermidis. Overnight growth of S. epidermidis in tryptic soy broth (TSB) was used as inoculum. Biofilm was developed in 12-well microplate in the absence and presence of each test compound (1 μg/ml DispersinB or 8 μg/ml PyrM) separately and together (DispersinB+PyrM). The plates were incubated at 37° C. for 24 h. Medium containing planktonic cells in each well was removed gently and rinsed with sterile water. A known volume of water was added to each well and sonicated for seconds. The contents of each well was transferred into a sterile tube, vortexed for a minute, followed by 10-fold serial dilution, and plated on agar plates using a spreader. After incubating the plates at 37° C. for 24 h, colony-forming units (CFU) were counted.
The subject of assay [8] is biofilm-embedded S. epidermidis. The assay is described as follows: In vitro biofilm-dispersal assay in microcentrifuge tubes (sensitivity of biofilm-embedded cells, CFU plating). Type of assay: cell-based, Staphylococcus epidermidis. The note with it: 3 h, 37° C.
The subject of assay [9] is biofilm embedded S. aureus. The assay can be described thus: 12-well microplate biofilm assay with CFU counting. It is filed as cell-based, Staphylococcus aureus. The conditions noted are these: EGCG 100 ng/ml alone versus DispersinB alone. On the procedure: An in vitro microplate assays were performed to determine the effects of a DispersinB™ and EGCG combination on the growth of biofilm embedded S. epidermidis and S. aureus. Overnight cultures of each bacterial strain grown in Tryptic Soy Broth (TSB) were used as inoculum. Biofilm was developed in TSB on a 12-well microplate in the absence and presence of each test compound (50 ng DispersinB™ or 100 ng/ml ECCG) separately and together (DispersinB™+EGCG). The plates were incubated at 37° C. for 24 hours. Medium containing planktonic cells in each well was removed gently and rinsed with sterile water. A known volume of water was added to each well and sonicated for 30 seconds. The contents of each well was transferred into a sterile tube, vortexed for a minute, followed by 10-fold serial dilution, and plated on agar plates using a spreader. After incubating the plates at 37° C. for 24 hours, colony forming units (CFU) were counted.

[10] abbreviates: BisEDT 50 μg/ml, DispersinB 50 μg/ml, phage cocktail 10^8.

For `CCCCCCCCCCCCOS(=O)(=O)[O-].[Na+]` [SDS, sodium dodecyl sulfate], the “MIC against planktonic cells” value in assay [1] is recorded as 0.01%. In addition, in assay [2] (SDS alone, 0.2 mg/ml, 5 min, PBS pretreatment), the “killing of biofilm-embedded S. epidermidis” value was “did not significantly kill”. For the same molecule, the “decrease in the number of CFUs” value in assay [2] (tubes pretreated with DispersinB 20 μg/ml 30 min, then SDS 0.2 mg/ml 5 min) stood at 1.5 log unit. For the same molecule, the “detachment of PGA mutant biofilms” value in assay [3] is recorded as “rapid detachment”. Moreover, the “detachment of wild-type biofilms by SDS” value in assay [4] (0.001-1% SDS, 5 min, microplate wells, mock pretreatment) is listed as “resistant to detachment at all concentrations of SDS”. For the same molecule, the “attachment of wild-type biofilms” value in [4] (0.1% SDS in PBS, 5 min, tubes and microplate wells) is “no effect”. The “SDS concentrations at which biofilms were resistant to detachment” value in [4] (wild-type biofilms pre-treated with DispersinB 20 μg/mL 30 min, then SDS 5 min, microplate wells) was < 0.04%. Further, the “SDS concentration of transition from SDS-resistant to SDS-sensitive” value in [4] (wild-type biofilms pre-treated with DispersinB, same transition expressed in mM) is 1.4 to 2.4 mM. Also, the “killing of A. actinomycetemcomitans biofilms” value in assay [5] (SDS alone, 0.01%, 5 min, mock pre-treatment) was “did not significantly kill”. The figures for the “decrease in the number of CFU” value in assay [5] (tubes pre-treated with DispersinB 20 μg/mL for 5 min) and in assay [5] (tubes pre-treated with DispersinB 20 μg/mL for 30 min) were 2 log-unit and 4 log-unit, respectively.
With bismuth ethanedithiol [BisEDT], in assay [6] (setting [10]), the “luminescence, Day 1” value stood at 245.27 RLU; the “luminescence, Day 2” value came out at 83.51 RLU; the “luminescence, Day 3” value came to 8.02 RLU; the “luminescence, Day 4” value stood at 47.62 RLU. Also, in assay [6] (Day 0, before treatment (baseline)), the “luminescence, Day 0” value was determined as 1815.26 RLU.
With `O=C1C=CC(=O)N1c1ccc2ccc3cccc4ccc1c2c34` [PyrM, N-(1-pyrenyl)maleimide], the “inhibiting the growth of biofilm-embedded S. epidermidis, compound alone” value in [7] (8 μg/ml PyrM alone versus 1 μg/ml DispersinB alone) is “more effective than DispersinB”.
Consider glucose oxidase, for which the “inhibitory effect on biofilm-embedded S. epidermidis” value in [8] (glucose oxidase 10 U/m in combination with DispersinB 20 μg/ml) is on record as “enhanced the inhibitory effect”.
As for `OC[C@@H](O)[C@H](O)[C@@H](O)CO` [xylitol], in assay [8] (5% xylitol in combination with DispersinB 20 μg/ml), the “inhibitory effect on biofilm-embedded S. epidermidis” value was “slightly enhanced the inhibitory effect”.
Take benzalkonium chloride [BKC]: the “killing of biofilm-embedded S. epidermidis” value in assay [2] (BKC alone, 0.4 μg/ml, 60 min, PBS pretreatment) is reported as “did not significantly kill”. In [2] (tubes pretreated with DispersinB 20 μg/ml 30 min, then BKC 0.4 μg/ml 60 min), the “decrease in CFU” value was 2.2 log.
In the case of `O=C(O[C@@H]1Cc2c(O)cc(O)cc2O[C@@H]1c1cc(O)c(O)c(O)c1)c1cc(O)c(O)c(O)c1` [EGCG, Epigallocatechin gallate], the “inhibiting the growth of biofilm embedded S. epidermidis, compound alone” value in assay [7] (EGCG 100 ng/ml alone versus DispersinB alone) was “more effective than DispersinB™”. Besides, the “inhibiting the growth of biofilm embedded S. aureus, compound alone” value in assay [9] is given as “more effective than DispersinB™”.
For the molecule `[H]/N=C(\N/C(=N/[H])NCCCCCCNC(=N)NC(=N)Nc1ccc(Cl)cc1)Nc1ccc(Cl)cc1` [CHX, chlorhexidine], in assay [2] (CHX alone, 0.2 μg/ml, 5 min, PBS pretreatment), the “killing of S. epidermidis biofilm” value is on record as “did not significantly kill”. Moreover, the “decrease of CFU” value in [2] (tubes pretreated with DispersinB 20 μg/ml 30 min, then CHX 0.2 μg/ml 5 min) was found to be 1.6 log.
With `O=C1C=CC(=O)N1c1ccccc1N1C(=O)C=CC1=O` [oPDM, N,N-(1,2 phenylene)dimaleimide], in [7] (625 μg/ml oPDM alone versus 1 μg/ml DispersinB alone), the “inhibiting the growth of biofilm-embedded S. epidermidis, compound alone” value is “more effective than DispersinB”.
